According to patent publication US20210347736A1, “CRYSTALLINE FORMS OF A FARNESOID X RECEPTOR AGONIST” (Metacrine, Inc., priority 2018, published 2021):
pEC50: −log10 of the molar value. “Also recorded” adds a separate entry of the source.

Assays:
[1] = target: T1, hFXR (Homo sapiens, UniProt Q96RI1); test: In Vitro FXR Assay (TK hFXR luciferase reporter in transfected CV-1 cells); type: cell-based; settings: CV-1 cells transfected with hFXR, hRXR, TK-ECRE-luc; 18 hrs incubation; luminescence
T1 construct: expressed in transfected cells; host or cells: CV-1 cells
T1 sequence (Q96RI1 1-486): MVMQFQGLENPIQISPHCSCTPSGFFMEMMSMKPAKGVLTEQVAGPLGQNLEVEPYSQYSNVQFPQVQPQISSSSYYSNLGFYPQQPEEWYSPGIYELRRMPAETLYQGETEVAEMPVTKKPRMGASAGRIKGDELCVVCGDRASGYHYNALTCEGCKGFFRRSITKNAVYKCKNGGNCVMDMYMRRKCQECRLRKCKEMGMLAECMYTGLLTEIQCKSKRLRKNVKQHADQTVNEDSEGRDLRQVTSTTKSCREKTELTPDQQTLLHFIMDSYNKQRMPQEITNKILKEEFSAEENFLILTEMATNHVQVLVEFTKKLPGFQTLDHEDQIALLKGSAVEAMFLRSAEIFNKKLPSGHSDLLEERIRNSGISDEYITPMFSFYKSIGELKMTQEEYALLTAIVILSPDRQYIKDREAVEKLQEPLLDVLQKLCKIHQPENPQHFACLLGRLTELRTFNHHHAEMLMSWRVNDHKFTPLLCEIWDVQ
T1 sequence (P19793 1-462 partner): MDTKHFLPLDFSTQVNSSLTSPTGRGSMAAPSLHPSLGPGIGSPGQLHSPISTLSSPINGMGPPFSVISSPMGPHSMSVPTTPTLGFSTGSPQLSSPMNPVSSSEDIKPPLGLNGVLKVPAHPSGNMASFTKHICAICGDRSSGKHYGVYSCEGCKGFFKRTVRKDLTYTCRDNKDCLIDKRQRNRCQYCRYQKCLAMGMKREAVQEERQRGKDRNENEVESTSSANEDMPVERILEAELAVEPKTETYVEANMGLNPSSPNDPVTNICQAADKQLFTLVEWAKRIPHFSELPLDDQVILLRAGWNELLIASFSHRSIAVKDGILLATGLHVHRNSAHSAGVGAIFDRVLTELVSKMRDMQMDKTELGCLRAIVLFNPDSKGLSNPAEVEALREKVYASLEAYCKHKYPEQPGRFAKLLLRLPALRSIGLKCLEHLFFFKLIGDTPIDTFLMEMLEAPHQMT
Description: CV-1 cells were seeded at a density of 2,000,000 cells in a T175 flask with DMEM+10% charcoal double-stripped FBS and incubated at 37° C. in 5% CO2 for 18 h (O/N).
After 18 h of incubation, the medium in the T175 flask was changed with fresh DMEM+10% charcoal super-stripped serum. In a polypropylene tube, 2500 μL OptiMEM (Life Technologies, Cat #31985-062) was combined with expression plasmids for hFXR, hRXR, TK-ECRE-luc and pCMX-YFP. The tube was then briefly vortexed and incubated at room temperature for 5 minutes. Transfection reagent (X-tremeGENE HP from Roche, Cat #06 366 236 001) was added to the OptiMEM/plasmid mixture vortexed and incubated at room temperature for 20 minutes. Following incubation, the transfection reagent/DNA mixture complex was added to cells in the T175 flask and the cells were incubated at 37° C. in 5% CO2 for 18 h (O/N).
Compound 1 was serially diluted in DMSO and added to transfected CV-1 cells. The cells were then incubated for 18 hrs. The next day cells were lysed and examined for luminescence.

[2] = Storage stability of Form 1 for 7 days at elevated humidity (HPLC purity, XRPD); type: physicochemical
Description: X-Ray Powder Diffraction patterns were collected on a Bruker D8 diffractometer using Cu Kα radiation (40 kV, 40 mA), 0-20 goniometer, and divergence of V4 and receiving slits, a Ge monochromator and a Lynxeye detector. The instrument was performance checked using a certified Corundum standard (NIST 1976). The software used for data collection was Diffrac Plus XRD Commander v2.6.1 and the data were analysed and presented using Diffrac Plus EVA v15.0.0.0.
Samples were run under ambient conditions as flat plate specimens using powder as received. The sample was gently packed into a cavity cut into polished, zero-background (510) silicon wafer. The sample was rotated in its own plane during analysis. The parameters for data collection were: angular range, 2 to 42° 2θ; step size, 0.05° 2θ; collection time, 0.5 s/step.
Purity analysis was performed on an Agilent HP1100 series system equipped with a diode array detector and using ChemStation software vB.04.03 using the method detailed in Table 4 below:
Further, Form 1 of Compound 1 was unchanged by XRPD after 7 days at 25° C. and 97% RH (see FIG. 6, trace (b)).
Further, Form 1 of Compound 1 was unchanged by XRPD after 7 days at 40° C. and 75% RH (see FIG. 6, trace (c)).

[3] = Gravimetric Vapor Sorption (GVS); type: physicochemical
Description: Sorption isotherms were obtained using a SMS DVS Intrinsic moisture sorption analyser, controlled by DVS Intrinsic Control software v1.0.1.2 (or v1.0.1.3). The sample temperature was maintained at 25° C. by the instrument controls. The humidity was controlled by mixing streams of dry and wet nitrogen, with a total flow rate of 200 ml/min The relative humidity was measured by a calibrated Rotronic probe (dynamic range of 1.0-100% RH), located near the sample. The weight change, (mass relaxation) of the sample as a function of % RH was constantly monitored by the microbalance (accuracy ±0.005 mg).
Typically 5-20 mg of sample was placed in a tared mesh stainless steel basket under ambient conditions. The sample was loaded and unloaded at 40% RH and 25° C. (typical room conditions). A moisture sorption isotherm was performed as outlined below (2 scans giving 1 complete cycle). The standard isotherm was performed at 25° C. at 10% RH intervals over a 0-90% RH range. Data analysis was carried out using Microsoft Excel using DVS Analysis Suite v6.2 (or v6.1 or v6.0).
The sample was recovered after completion of the isotherm and re-analysed by XRPD.

[4] = after 7 days at 25° C. and 97% RH
[5] = after 7 days at 40° C. and 75% RH

## COc1ccc([C@H]2CC[C@H](CN(c3cccc(-c4cnn(C5CC5)c4)c3)C(=O)[C@H]3CC[C@H](O)CC3)CC2)cc1C [Compound 1, trans-N-(3-(1-cyclopropyl-1H-pyrazol-4-yl)phenyl)-4-hydroxy-N-((trans-4-(4-methoxy-3-methylphenyl)cyclohexyl)methyl)cyclohexanecarboxamide]
[1]
  pEC50: ≥ 6.60

## COc1ccc([C@H]2CC[C@H](CN(c3cccc(-c4cnn(C5CC5)c4)c3)C(=O)[C@H]3CC[C@H](O)CC3)CC2)cc1C [Form 1 of Compound 1, trans-N-(3-(1-cyclopropyl-1H-pyrazol-4-yl)phenyl)-4-hydroxy-N-((trans-4-(4-methoxy-3-methylphenyl)cyclohexyl)methyl)cyclohexanecarboxamide]
[2]; [4]
  HPLC purity after storage: 99.40 % AUC
  change by XRPD after storage: unchanged; also recorded: no changes
[2]; [5]
  HPLC purity after storage: 99.48 % AUC
  change by XRPD after storage: unchanged; also recorded: no changes
[3]; after GVS
  Post-GVS analysis by XRPD: no change
[3]; between 0-90% RH, 25° C.
  moisture uptake by GVS: 0.02%
[3]; summary statement
  hygroscopicity / moisture uptake by GVS (in words): non-hygroscopic; also recorded: No significant moisture uptake
